In brackets after ≈: the same amount, converted by molar mass.
Tests used:
[1] = biological target: histone deacetylase (HeLa nuclear extracts); assay: In vitro assay for inhibition of histone deacetylase; format: biochemical; settings: [3H]acetylated histone H4 peptide substrate
Procedure: The in vitro assay for inhibition of histone deacetylase (see example C.1) measures the inhibition of HDAC enzymatic activity obtained with the compounds of formula (I).
HeLa nuclear extracts (supplier: Biomol) were incubated at 60 μg/ml with 2×10^−8 M of radiolabeled peptide substrate. As a substrate for measuring HDAC activity a synthetic peptide, i.e. the amino acids 14–21 of histone H4, was used. The substrate is biotinylated at the NH2-terminal part with a 6-aminohexanoic acid spacer, and is protected at the COOH-terminal part by an amide group and specifically [^3H]acetylated at lysine 16. The substrate, biotin-(6-aminohexanoic)Gly-Ala-([^3H]-acetyl-Lys-Arg-His-Arg-Lys-Val-NH2), was added in a buffer containing 25 mM Hepes, 1 M sucrose, 0.1 mg/ml BSA and 0.01% Triton X-100 at pH 7.4. After 30 min the deacetylation reaction was terminated by the addition of HCl and acetic acid. (final concentration 0.035 mM and 3.8 mM respectively). After stopping the reaction, the free ^3H-acetate was extracted with ethylacetate. After mixing and centrifugation, the radioactivity in an aliquot of the upper (organic) phase was counted in a β-counter.
For each experiment, controls (containing HeLa nuclear extract and DMSO without compound), a blank incubation (containing DMSO but no HeLa nuclear extract or compound) and samples (containing compound dissolved in DMSO and HeLa nuclear extract) were run in parallel. In first instance, compounds were tested at a concentration of 10^−5M. […] In each test the blank value was substracted from both the control and the sample values. The control sample represented 100% of substrate deactylation. For each sample the radioactivity was expressed as a percentage of the mean value of the controls. […] Herein the effects of test compounds are expressed as pIC50 (the negative log value of the IC50-value).

[2] = test system: A2780 ovarian carcinoma cells; assay: Antiproliferative activity on A2780 cells (MTT); format: cell-based, human; settings: four days of incubation; for IC50: Homo sapiens, A2780, 96 h, read-out: Cellular activity pIC50 (converted)
Procedure: Cellular activity of the compounds of formula (I) was determined on A2780 tumour cells using a colorimetric assay for cell toxicity or survival (Mosmann Tim, Journal of Immunological Methods 65: 55–63, 1983)(see example C.2).
All compounds tested were dissolved in DMSO and further dilutions were made in culture medium. Final DMSO concentrations never exceeded 0.1% (v/v) in cell proliferation assays. Controls contained A2780 cells and DMSO without compound and blanks contained DMSO but no cells. MTT was dissolved at 5 mg/ml in PBS. A glycine buffer comprised of 0.1 M glycine and 0.1 M NaCl buffered to pH 10.5 with NaOH (1 N) was prepared (all reagents were from Merck).
The human A2780 ovarian carcinoma cells (a kind gift from Dr. T. C. Hamilton [Fox Chase Cancer Centre, Pennsylvania, USA]) were cultured in RPMI 1640 medium supplemented with 2 mM L-glutamine, 50 μg/ml gentamicin and 10% fetal calf serum. Cells were routinely kept as monolayer cultures at 37° C. in a humidified 5% CO2 atmosphere. Cells were passaged once a week using a trypsin/EDTA solution at a split ratio of 1:40. All media and supplements were obtained from Life Technologies. Cells were free of mycoplasma contamination as determined using the Gen-Probe Mycoplasma Tissue Culture kit (supplier: BioMérieux).
Cells were seeded in NUNC™ 96-well culture plates (Supplier: Life Technologies) and allowed to adhere to the plastic overnight. Densities used for plating were 1500 cells per well in a total volume of 200 μl medium. After cell adhesion to the plates, medium was changed and drugs and/or solvents were added to a final volume of 200 μl. Following four days of incubation, medium was replaced by 200 μl fresh medium and cell density and viability was assessed using an MTT-based assay. To each well, 25 μl MTT solution was added and the cells were further incubated for 2 hours at 37° C. The medium was then carefully aspirated and the blue MTT-formazan product was solubilized by addition of 25 μl glycine buffer followed by 100 μl of DMSO. […] Within an experiment, the results for each experimental condition are the mean of 3 replicate wells. For initial screening purposes, compounds were tested at a single fixed concentration of 10^−6 M. For active compounds, the experiments were repeated to establish full concentration-response curves. For each experiment, controls (containing no drug) and a blank incubation (containing no cells or drugs) were run in parallel. The blank value was subtracted from all control and sample values. For each sample, the mean value for cell growth (in absorbance units) was expressed as a percentage of the mean value for cell growth of the control. […] Herein the effects of test compounds are expressed as pIC50 (the negative log value of the IC50-value).

[3] = Kinetic solubility in aqueous media (nephelometry); format: physicochemical; settings: phosphate citrate buffer, pH 7.4, aqueous buffer, kinetic from dmso stock, phosphate citrate buffer pH 7.4, turbidity of three dilution steps; read-out: Solubility Score
Procedure: Kinetic solubility in aqueous media measures the ability of a compound to stay in aqueous solution upon dilution (see example C.3).
DMSO-stock solutions are diluted with a single aqueous buffer solvent in 3 consecutive steps. For every dilution turbidity is measured with a nephelometer.
In the first dilution step, 10 μl of a concentrated stock-solution of the active compound, solubilized in DMSO (5 mM), was added to 100 μl phosphate citrate buffer pH 7.4 and mixed. In the second dilution step, an aliquot (20 μl) of the first dilution step was further dispensed in 100 μl phosphate citrate buffer pH 7.4 and mixed. Finally, in the third dilution step, a sample (20 μl) of the second dilution step was further diluted in 100 μl phosphate citrate buffer pH 7.4 and mixed. All dilutions were performed in 96-well plates. Immediately after the last dilution step the turbidity of the three consecutive dilution steps were measured with a nephelometer. Dilution was done in triplicate for each compound to exclude occasional errors. Based on the turbidity measurements a ranking is performed into 3 classes. Compounds with high solubility obtained a score of 3 and for this compounds the first dilution is clear. Compounds with medium solubility obtained a score of 2. For these compounds the first dilution is unclear and the second dilution is clear. […] The solubility of 112 compounds was measured.

| SMILES | Enzyme activity pIC50 [1] | IC50 [2] [nM] | solubility [3] [µM] | Cellular activity pIC50 [2] |
| --- | --- | --- | --- | --- |
| O=C(CS)Nc1ccc(N2CCN(S(=O)(=O)c3ccc4ccccc4c3)CC2)cc1 [Compound 19] | <5 | > 10000 | < 75.8 | – |
| O=C(NO)c1cnc(N2CCN(S(=O)(=O)c3ccc4ccccc4c3)CC2)nc1N1CCN(S(=O)(=O)c2ccc3ccccc3c2)CC1 [Compound 117] | <5 | 1740 | – | – |
| O=C(NO)c1cnc(N2CCN(S(=O)(=O)c3ccc(-c4ccccc4OCCN4CCOCC4)cc3)CC2)nc1 [Compound 153] | 8.7 | 275 | – | – |
| Cn1nc(C(F)(F)F)cc1-c1ccc(S(=O)(=O)N2CCN(c3ncc(C(=O)NO)cn3)CC2)s1 [Compound 94] | 7.497 | 218 | 75.8 to 454 (≈ 39.2 to 235 µg/mL) | – |
| O=C(NO)c1ccc(N2CCN(S(=O)(=O)c3ccc4ccccc4c3)CC2)cc1 [Compound 2] | 7.147 | 1940 | < 75.8 | – |
| O=C(NO)c1cnc(N2CCN(S(=O)(=O)c3ccc(-c4ccc(OC(F)(F)F)cc4)cc3)CC2)nc1 [Compound 98] | 7.054 | 356 | 75.8 to 454 (≈ 39.7 to 238 µg/mL) | – |
| Cc1ccc(S(=O)(=O)N2CCN(c3ccc(C(=O)NO)cc3)CC2)cc1 [Compound 79] | 6.238 | 4290 | < 75.8 | – |
| CN(C)CCCOc1ccc(-c2ccc(S(=O)(=O)N3CCN(c4ncc(C(=O)NO)cn4)CC3)cc2)cc1 [Compound 156] | 8.568 | 30 | – | – |
| O=C(NO)c1ccc(N2CCCN(S(=O)(=O)c3ccc4ccccc4c3)CC2)cc1 [Compound 1] | 6.482 | > 10000 | – | – |
| CN(C)CCN(C)Cc1ccc(-c2ccc(S(=O)(=O)N3CCN(c4ncc(C(=O)NO)cn4)CC3)cc2)cc1 [Compound 164] | 8.308 | 48.3 | 75.8 to 454 (≈ 42 to 252 µg/mL) | – |
| CCCc1ccc(S(=O)(=O)N2CCN(c3ccc(C(=O)NO)cc3)CC2)cc1 [Compound 63] | 6.215 | 1860 | < 75.8 | – |
| O=C(NO)c1cnc(N2CCN(S(=O)(=O)c3cccs3)CC2)nc1 [Compound 90] | 7.467 | 1110 | > 454 | – |
| O=C(Nc1ccc(N2CCN(S(=O)(=O)c3ccc4ccccc4c3)CC2)cc1)c1ccc(=O)[nH]c1 [Compound 86] | <5 | > 10000 | – | – |
| O=C(NO)c1cnc(N2CCN(S(=O)(=O)c3ccc4c(Cl)cccc4c3)CC2)nc1 [Compound 97] | 7.938 | 125 | – | – |
| COc1ccc(-c2ccc(S(=O)(=O)N3CCN(c4ncc(C(=O)NO)cn4)CC3)cc2)cc1OC [Compound 101] | 6.671 | 101 | – | – |
| O=C(NO)c1ccc(C(=O)N2CCN(S(=O)(=O)c3ccc4ccccc4c3)CC2)cc1 [Compound 89] | 6.423 | 6070 | – | – |
| O=C(NO)c1cccc(CN2CCN(S(=O)(=O)c3ccc4ccccc4c3)CC2)c1 [Compound 7] | <5 | – | – | – |
| O=C(NO)c1cnc(N2CCN(S(=O)(=O)c3ccc(-c4ccc(OCCN5CCOCC5)cc4)cc3)CC2)nc1 [Compound 155] | 7.939 | 87.1 | – | – |

| SMILES | Enzyme activity pIC50 [1] | IC50 [2] [nM] | solubility [3] [µM] | Cellular activity pIC50 [2] |
| --- | --- | --- | --- | --- |
| Nc1ccc(-c2ccc(S(=O)(=O)N3CCN(c4ncc(C(=O)NO)cn4)CC3)cc2)cc1 [Compound 140] | 7.739 | 99.8 | – | – |
| O=C(NO)c1cnc(N2CCN(S(=O)(=O)c3ccc(-c4ccc5[nH]ccc5c4)cc3)CC2)nc1 [Compound 132] | 7.162 | 461 | – | – |
| CN(C)Cc1ccc(-c2ccc(S(=O)(=O)N3CCN(c4ncc(C(=O)NO)cn4)CC3)cc2)cc1 [Compound 163] | 8.553 | 42.7 | – | – |
| O=C(NO)c1cnc(N2CCN(S(=O)(=O)c3ccc(-c4ccc(CO)cc4)cc3)CC2)nc1 [Compound 139] | 7.612 | 55.2 | – | – |
| O=C(NO)c1cnc(N2CCN(S(=O)(=O)c3ccc(-c4ccc(CN5CCOCC5)cc4)cc3)CC2)nc1 [Compound 162] | – | 117 | – | 7.039 |
| O=C(NO)c1cnc(N2CCN(S(=O)(=O)c3ccc(-c4cc(C(F)(F)F)cc(C(F)(F)F)c4)cc3)CC2)nc1 [Compound 180] | <5 | > 10000 | – | – |
| O=C(NO)c1ccc(N2CCN(S(=O)(=O)c3cc(C(F)(F)F)cc(C(F)(F)F)c3)CC2)cc1 [Compound 75] | <5 | 6870 | – | – |
| O=C1CCC(C(=O)Nc2ccc(N3CCN(S(=O)(=O)c4ccc5ccccc5c4)CC3)cc2)N1 (stereo not shown) [Compound 84] | <5 | > 10000 | – | – |
| Cc1cnc(C(=O)Nc2ccc(N3CCN(S(=O)(=O)c4ccc5ccccc5c4)CC3)cc2)cn1 [Compound 85] | <5 | > 10000 | – | – |
| O=C(NO)c1cc([N+](=O)[O-])ccc1N1CCN(S(=O)(=O)c2ccc(Cl)s2)CC1 [Compound 22] | <5 | – | – | – |
| CN(C)CCN(C)Cc1sccc1-c1ccc(S(=O)(=O)N2CCN(c3ncc(C(=O)NO)cn3)CC2)cc1 [Compound 146] | 8.565 | 119 | – | – |
| O=C(Nc1ccc(N2CCN(S(=O)(=O)c3ccc4ccccc4c3)CC2)cc1)c1ccc[nH]c1=O [Compound 87] | <5 | > 10000 | – | – |
| O=C(NCCO)c1ccc(N2CCN(S(=O)(=O)c3ccc4ccccc4c3)CC2)cc1 [Compound 16] | <5 | > 10000 | – | – |
| O=C(NO)c1cnc(N2CCCN(S(=O)(=O)c3ccc4ccccc4c3)CC2)nc1 [Compound 141] | 7.125 | 991 | – | – |
| CC(C)(C)c1ccc(S(=O)(=O)N2CCN(c3ncc(C(=O)NO)cn3)CC2)cc1 [Compound 92] | 7.876 | 723 | – | – |
| O=C(NO)c1cnc(N2CCN(S(=O)(=O)c3ccc(-c4ccsc4)cc3)CC2)nc1 [Compound 104] | 8.152 | 58.5 | – | – |
| COc1ccc(OC)c(S(=O)(=O)N2CCN(c3ccc(C(=O)NO)cc3)CC2)c1 [Compound 77] | 5.937 | 7100 | – | – |

— US7205304B2, “Sulfonyl-Derivatives as novel inhibitors of histone deacetylase” (Janssen Pharmaceutica N.V., priority 2002, dated 2007)
